Experimental data: patent publication US12630600B2 (MEDIMMUNE LIMITED, priority 2022, dated 2026)
Each block holds one molecule with its values, some of them ahead of it. Starred links: 1 amine or outer side, 2 acyl side, 3 side chain; linkers in the order of their positions; H or OH if unused. Non-standard residues stand in square brackets, D forms with d. Residues, ends and D or L forms follow the SMILES beside them. Groups on a side chain read outwards from the residue. No end group written: not given here. *: point of attachment. C20 diacid = O=C(O)CCCCCCCCCCCCCCCCCCC(=O)*; C18 diacid = O=C(O)CCCCCCCCCCCCCCCCC(=O)*; γGlu = O=C(O)[C@H](CCC(=O)[*:2])N[*:1]; Stearoyl = CCCCCCCCCCCCCCCCCC(=O)*; αMeF = C[C@](N)(Cc1ccccc1)C(=O)O; PEG2 = NCCOCCOCCC(=O)O; AEEA = NCCOCCOCC(=O)O; Aib = CC(C)(N)C(=O)O

Experiments:
[1] = molecular target: T1, human GLP-1 receptor (hGLP-1R) (Homo sapiens, UniProt P43220); assay: cAMP production (HTRF) in CHO cells expressing human GLP-1 receptor; type: cell-based; conditions: Table 8; % GLP-1R activity relative to GLP-1 / % GlucR activity relative to glucagon
T1 construct: expressed in transfected cells; host or cells: CHO

Male C57Bl/6 mice = assay: Mouse acute food intake study; type: in vivo; conditions: s.c., dose 10 nmol/kg, food intake at 24 h vs vehicle
Description: Male C57Bl/6 mice obtained from Jackson Laboratories or Charles River at 8-9 weeks of age and were housed one per cage in BioDaq (Research Diets) cages. Mice were placed on Alpha Dri bedding, standard chow diet (Envigo, 2018) and given water pouches. Mice were allowed to acclimate for 1-2 weeks. Body weight was measured to ensure appropriate acclimation. After acclimation, mice were sham dosed a minimum of 2 times prior to initiation of food intake study. On study day, mice were placed in clean cage bottoms, weighed, and fasted for 6-8 hours. Mice were sorted into groups based on average 24-hour food intake data and body weight. 1-2 hours prior to lights out, mice were dosed subcutaneously with one vehicle or test peptide dissolved in an appropriate vehicle at 5 mL/kg. Mice were left undisturbed and allowed access to food and water for 48 hours. Automated food intake was monitored in the BioDaq system was monitored during this time. Discrete food intake data was exported into MS Excel from which cumulative food intake data was generated and analyzed.

wildtype (WT) mice = assay: Glucose change in wildtype mice; type: in vivo, mouse; conditions: s.c., no somatostatin pretreatment
Description: (§1) GLP-JR knockout (KG) and wildtype (WT) mice at 8-14 weeks of age were singly housed on standard chow diet (Envigo, 2918) and automatic water. They acclimated for a minimum of ˜1-2 weeks, and mice were sorted into groups (n=4-8/group) based on body weight. On day of study, mice were fasted briefly for 2 hrs prior to study start. In some studies, mice were pre-treated with octreotide (BaChem, 10 mg/kg) at 30 minutes prior to peptide injection. Glucose was measured via glucometer at various timepoints including −30 min (prior to octreotide when used in studies), 0 min (before peptide dose), 30, 60, 120, 180, 240, and 360 minutes. Since these studies are acute in nature, mice were re-used for multiple studies (no more than 3) and always allowed at least a minimum wash-out period of 1 week.

GLP-1R knockout mice = assay: Glucose change in GLP-1R knockout mice; type: in vivo, mouse; conditions: GLP-1R KO mice, s.c., no somatostatin pretreatment
Description: as §1, with “They” for “GLP-JR knockout (KG) and wildtype (WT) mice at 8-14 weeks of age were singly housed on standard chow diet (Envigo, 2918) and automatic water. They”

neprilysin = molecular target: T2, neprilysin (Homo sapiens, UniProt P08473); assay: Proteolytic resistance to neprilysin; type: in vitro ADME; conditions: pH 8.3
T2 construct: purchased R&D Systems 1182-ZNC-010
Description: 10.0 μg (˜10 units) recombinant Neprilysin (R&D Systems: 1182-ZNC-010) was reconstituted to 100 μL (100 μg/mL, ˜100 units/mL) in assay buffer (50 mM Tris, 50 mM NaCl, 50 mM NaHCO3, adjusted to pH 8.3) to give the enzyme stock solution. Peptide stock solutions were prepared to a concentration of ˜250 μM (˜1.0 mg/mL of 4 kDa peptide) in assay buffer. 100 μL (10 μg, ˜10 units) of neprilysin stock solution was added to 100 μL of peptide stock solution (1.0 mg/mL, ˜100 μg of peptide) and the mixture was co-incubated in a temperature regulated incubator at 37° C. for the duration of the experiment. 25 μL aliquots (˜12.5 μg initial peptide) of the peptide-enzyme mixture were periodically withdrawn (t=0, 30 mins, 1 h, 2 h, 4 h and 24 h) and quenched immediately by addition to an equal volume ([…]) of 10% TFA (v/v) in 1:1 water/acetonitrile to arrest proteolytic activity. The quenched aliquot centrifuged at 7800 rpm, and 30 μL of the supernatant was analyzed by analytical RP-HPLC as follows: Analytical RP-HPLC method: Agilent Polaris C8-A column (4.6×100 mm, 3 micron) eluted with a linear binary gradient of 10-90% MeCN (0.1% TFA v/v) in water (0.1% TFA v/v) over either 10 or 15 mins at 1.5 mL min^−1 at 40° C. with detection by UV absorption at 210 nm. Manual integration (AUC) allowed estimation of remaining intact peptide over the time course of the experiment.

human glucagon receptor = human glucagon receptor (human, UniProt P47871); assay: cell-based or functional assay

T1 sequence (P43220 24-463): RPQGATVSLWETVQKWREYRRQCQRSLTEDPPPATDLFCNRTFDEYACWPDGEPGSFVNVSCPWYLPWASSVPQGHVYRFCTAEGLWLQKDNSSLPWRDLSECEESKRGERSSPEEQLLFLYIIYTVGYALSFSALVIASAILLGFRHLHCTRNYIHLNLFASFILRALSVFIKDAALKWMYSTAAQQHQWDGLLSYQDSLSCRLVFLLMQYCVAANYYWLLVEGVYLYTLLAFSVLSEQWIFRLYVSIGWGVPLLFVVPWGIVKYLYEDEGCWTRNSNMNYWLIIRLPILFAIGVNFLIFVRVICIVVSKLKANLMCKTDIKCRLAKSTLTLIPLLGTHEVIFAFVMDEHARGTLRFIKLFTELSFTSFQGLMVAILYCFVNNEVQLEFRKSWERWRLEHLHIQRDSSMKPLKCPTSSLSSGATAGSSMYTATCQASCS
T2 sequence (P08473 whole entry): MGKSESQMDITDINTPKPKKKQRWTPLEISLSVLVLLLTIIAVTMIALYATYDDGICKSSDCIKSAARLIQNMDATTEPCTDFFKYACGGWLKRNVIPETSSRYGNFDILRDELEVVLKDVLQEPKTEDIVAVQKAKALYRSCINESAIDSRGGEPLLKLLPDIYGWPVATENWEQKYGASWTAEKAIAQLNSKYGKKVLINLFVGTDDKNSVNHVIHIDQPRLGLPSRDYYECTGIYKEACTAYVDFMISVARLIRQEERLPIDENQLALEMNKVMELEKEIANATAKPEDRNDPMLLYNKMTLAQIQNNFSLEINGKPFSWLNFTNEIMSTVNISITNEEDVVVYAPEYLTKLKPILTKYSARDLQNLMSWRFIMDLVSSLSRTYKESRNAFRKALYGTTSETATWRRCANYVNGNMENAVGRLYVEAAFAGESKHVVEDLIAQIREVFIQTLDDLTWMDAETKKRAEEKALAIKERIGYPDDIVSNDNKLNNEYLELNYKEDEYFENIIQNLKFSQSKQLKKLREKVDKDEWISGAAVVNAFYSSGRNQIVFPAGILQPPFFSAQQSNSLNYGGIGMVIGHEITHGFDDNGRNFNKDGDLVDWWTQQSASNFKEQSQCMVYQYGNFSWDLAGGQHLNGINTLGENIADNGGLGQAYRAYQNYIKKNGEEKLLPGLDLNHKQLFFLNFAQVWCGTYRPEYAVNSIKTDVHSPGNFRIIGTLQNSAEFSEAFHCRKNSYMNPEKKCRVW

- % Relative Potency Ratio [1]: 1.4
Molecule: CC[C@H](C)[C@H](NC(=O)C(C)(C)NC(=O)[C@H](CCCCNC(=O)COCCOCCNC(=O)COCCOCCNC(=O)CC[C@H](NC(=O)CC[C@H](NC(=O)CCCCCCCCCCCCCCCCCCC(=O)O)C(=O)O)C(=O)O)NC(=O)[C@@H](NC(=O)[C@](C)(Cc1ccccc1)NC(=O)[C@H](CC(=O)O)NC(=O)[C@H](CCC(N)=O)NC(=O)[C@H](C)NC(=O)[C@H](C)NC(=O)[C@H](CCCNC(=N)N)NC(=O)[C@H](CO)NC(=O)[C@H](CC(=O)O)NC(=O)[C@H](CC(C)C)NC(=O)[C@](C)(Cc1ccccc1)NC(=O)[C@H](CCCCN)NC(=O)[C@H](CO)NC(=O)[C@@H](NC(=O)[C@H](CC(=O)O)NC(=O)[C@H](CO)NC(=O)[C@@H](NC(=O)[C@](C)(Cc1ccccc1)NC(=O)[C@H](CO)NC(=O)CNC(=O)[C@H](Cc1c[nH]cn1)NC(=O)C(C)(C)NC(=O)[C@@H](N)Cc1c[nH]cn1)[C@@H](C)O)C(C)C)C(C)C)C(=O)N[C@@H](C)C(=O)N[C@@H](CC(N)=O)C(=O)N[C@H](C(N)=O)[C@@H](C)O [Peptide 375] (H-H[Aib]HGS[αMeF]TSDVSK[αMeF]LDSRAAQD[αMeF]VK([AEEA-AEEA-γGlu-γGlu-C20 diacid])[Aib]IANT-NH2)
- 24 hr % Vehicle Food Intake (Male C57Bl/6 mice): 66.0%

Molecule: CC[C@H](C)[C@H](NC(=O)[C@H](Cc1c[nH]c2ccccc12)NC(=O)[C@H](CCC(N)=O)NC(=O)[C@@H](NC(=O)[C@H](Cc1ccccc1)NC(=O)[C@H](CC(=O)O)NC(=O)[C@H](CCCCNC(=O)COCCOCCNC(=O)COCCOCCNC(=O)CC[C@H](NC(=O)CC[C@H](NC(=O)CCCCCCCCCCCCCCCCCCC(=O)O)C(=O)O)C(=O)O)NC(=O)[C@H](C)NC(=O)[C@H](C)NC(=O)[C@H](CCCNC(=N)N)NC(=O)[C@H](CO)NC(=O)[C@H](CC(=O)O)NC(=O)[C@H](CC(C)C)NC(=O)[C@H](Cc1ccc(O)cc1)NC(=O)[C@H](CCCCN)NC(=O)[C@H](CO)NC(=O)[C@@H](NC(=O)[C@H](CC(=O)O)NC(=O)[C@H](CO)NC(=O)[C@@H](NC(=O)[C@](C)(Cc1ccccc1)NC(=O)[C@H](CO)NC(=O)CNC(=O)[C@H](Cc1c[nH]cn1)NC(=O)C(C)(C)NC(=O)[C@@H](N)Cc1c[nH]cn1)[C@@H](C)O)C(C)C)C(C)C)C(=O)N[C@@H](C)C(=O)N[C@@H](CC(N)=O)C(=O)N[C@H](C(N)=O)[C@@H](C)O [Peptide 289] (H-H[Aib]HGS[αMeF]TSDVSKYLDSRAAK([AEEA-AEEA-γGlu-γGlu-C20 diacid])DFVQWIANT-NH2; N-terminus assumed)
- WT % glucose change 120 min (wildtype (WT) mice; 10 nmol/kg): −8.5%
- GLP-1R KO % glucose change 120 min (GLP-1R knockout mice; 10 nmol/kg): 8.9%
- GLP-1R KO % glucose change 120 min (GLP-1R knockout mice; 30 nmol/kg): 7.7%

Molecule: CC(C)C[C@H](NC(=O)[C@H](Cc1c[nH]c2ccccc12)NC(=O)[C@H](CCC(N)=O)NC(=O)[C@@H](NC(=O)[C@H](Cc1ccccc1)NC(=O)[C@H](CC(=O)O)NC(=O)[C@H](CCCNC(=N)N)NC(=O)[C@H](C)NC(=O)[C@H](CCCNC(=N)N)NC(=O)[C@H](CCCCNC(=O)COCCOCCNC(=O)COCCOCCNC(=O)CC[C@H](NC(=O)CCCCCCCCCCCCCCCCC(=O)O)C(=O)O)NC(=O)[C@@H](NC(=O)[C@H](CC(=O)O)NC(=O)[C@H](CC(C)C)NC(=O)[C@](C)(Cc1ccccc1)NC(=O)[C@H](CCCCN)NC(=O)[C@H](CO)NC(=O)[C@@H](NC(=O)[C@H](CC(=O)O)NC(=O)[C@H](CO)NC(=O)[C@@H](NC(=O)[C@H](Cc1ccccc1)NC(=O)[C@@H](NC(=O)CNC(=O)[C@H](CCC(N)=O)NC(=O)C(C)(C)NC(=O)[C@@H](N)Cc1c[nH]cn1)[C@@H](C)O)[C@@H](C)O)C(C)C)[C@@H](C)O)C(C)C)C(=O)N[C@@H](CC(C)C)C(=O)N[C@@H](CCC(=O)O)C(=O)NC(C)(C)C(=O)NCC(=O)O [Peptide 188, H-Aib-Q-G-T-F-T-S-D-V-S-K-αMePhe-L-D-T-K-R-A-R-D-F-V-Q-W-L-L-E-Aib-G-acid]
- GLP-1R KO % glucose change −60 min (GLP-1R knockout mice; 10 nmol/kg): 64%

- % intact peptide over time, Neprilysin (neprilysin): 100%
Molecule: CCCCCCCCCCCCCCCCCC(=O)N[C@@H](CCC(=O)N[C@@H](CCC(=O)NCCOCCOCCC(=O)NCCOCCOCCC(=O)NCCCC[C@H](NC(=O)[C@H](CO)NC(=O)[C@H](CC(=O)O)NC(=O)[C@H](CC(C)C)NC(=O)[C@](C)(Cc1ccccc1)NC(=O)[C@H](CCCCN)NC(=O)[C@H](CO)NC(=O)[C@@H](NC(=O)[C@H](CC(=O)O)NC(=O)[C@H](CO)NC(=O)[C@@H](NC(=O)[C@](C)(Cc1ccccc1)NC(=O)[C@H](CO)NC(=O)CNC(=O)[C@H](CCC(N)=O)NC(=O)[C@H](CO)NC(=O)[C@@H](N)Cc1c[nH]cn1)[C@@H](C)O)C(C)C)C(=O)N[C@@H](C)C(=O)N[C@@H](C)C(=O)N[C@@H](CCC(N)=O)C(=O)N[C@@H](CC(=O)O)C(=O)N[C@@](C)(Cc1ccccc1)C(=O)N[C@H](C(=O)N[C@@H](CCC(N)=O)C(=O)NC(C)(C)C(=O)N[C@@H](CC(C)C)C(=O)N[C@@H](CCC(=O)O)C(=O)N[C@@H](C)C(=O)NCC(=O)NCC(N)=O)C(C)C)C(=O)O)C(=O)O [Peptide 78] (H-HSQGS[αMeF]TSDVSK[αMeF]LDSK([PEG2-PEG2-γGlu-γGlu-Stearoyl])AAQD[αMeF]VQ[Aib]LEAGG-NH2; N-terminus assumed)
- WT % glucose change 120 min (wildtype (WT) mice; 3 nmol/kg): −42.0%

- hGluc-R EC50 (pM) (human glucagon receptor): 72.4 pM
Molecule: H[Aib]HGS[αMeF]TSDVSK[αMeF]LDSRAAQDFVK([AEEA-AEEA-γGlu-C20 diacid])WIANT-NH2 (not fully specified) [Peptide 367]

- hGluc-R EC50 (pM) (human glucagon receptor): 42.8 pM
B1: Peptide 362 (peptide)
peptide: H[Aib]HGS[αMeF]TSDVSK[αMeF]LDSRAAQDFVK([AEEA-AEEA-γGlu-γGlu-C18 diacid])WIANT-NH2
modifications: N-terminus assumed
SMILES: CC[C@H](C)[C@H](NC(=O)[C@H](Cc1c[nH]c2ccccc12)NC(=O)[C@H](CCCCNC(=O)COCCOCCNC(=O)COCCOCCNC(=O)CC[C@H](NC(=O)CC[C@H](NC(=O)CCCCCCCCCCCCCCCCC(=O)O)C(=O)O)C(=O)O)NC(=O)[C@@H](NC(=O)[C@H](Cc1ccccc1)NC(=O)[C@H](CC(=O)O)NC(=O)[C@H](CCC(N)=O)NC(=O)[C@H](C)NC(=O)[C@H](C)NC(=O)[C@H](CCCNC(=N)N)NC(=O)[C@H](CO)NC(=O)[C@H](CC(=O)O)NC(=O)[C@H](CC(C)C)NC(=O)[C@](C)(Cc1ccccc1)NC(=O)[C@H](CCCCN)NC(=O)[C@H](CO)NC(=O)[C@@H](NC(=O)[C@H](CC(=O)O)NC(=O)[C@H](CO)NC(=O)[C@@H](NC(=O)[C@](C)(Cc1ccccc1)NC(=O)[C@H](CO)NC(=O)CNC(=O)[C@H](Cc1c[nH]cn1)NC(=O)C(C)(C)NC(=O)[C@@H](N)Cc1c[nH]cn1)[C@@H](C)O)C(C)C)C(C)C)C(=O)N[C@@H](C)C(=O)N[C@@H](CC(N)=O)C(=O)N[C@H](C(N)=O)[C@@H](C)O
